Measured values from patent US9500656B2, “Methods for the identification, assessment, and treatment of patients with cancer therapy” (Millennium Pharmaceuticals, Inc., priority 2006, dated 2016).

Tests used:
Assay type in all cases: in vivo, human
[1] = system: relapsed or refractory multiple myeloma; assay: Open-label randomized study of bortezomib versus high-dose dexamethasone (Protocol M34101-039); conditions: for survival: 22 month median follow-up, 44% events occurred; for One-year survival: in vivo
Experimental: A multicenter, open-label, randomized study was conducted, comprising 627 enrolled patients with relapsed or refractory multiple myeloma (Protocol M34101-039). See Richardson et. al., N. Engl. J. Med., 352:2487-2498 (2005).
Randomization was to be stratified, based on the number of lines of prior therapy (one prior line versus more than one prior line of therapy), time of progression relative to treatment (progression while on their most recent therapy or within 6 months of stopping their most recent therapy, or relapse >6 months after receiving their most recent therapy), and screening β2-microglobulin levels (>2.5 mg/L versus ≦2.5 mg/L).
Patients assigned to the high-dose dexamethasone group received treatment for a maximum of 280 days. Patients in this treatment group received up to four 5-week treatment cycles, followed by up to five 4-week treatment cycles. Within each 5-week treatment cycle, the patient received dexamethasone 40 mg/day PO, once daily on Days 1 to 4, 9 to 12, and 17 to 20 of a 35-day cycle. Within each 4-week treatment cycle, the patient received dexamethasone 40 mg/day PO once daily on Days 1 to 4 of a 28 day cycle.
(§1) During the study, disease response was assessed according to the European Group for Blood and Marrow Transplant (EBMT) criteria as presented in Table C.
See Richardson P G, et al. [submitted NEJM].
Disease progression was determined by Blade criteria as described in Table C and above. […] The date of progression was determined by computer algorithm. P-value from log-rank test adjusted by actual randomization factors. See, Richardson et al., New Engl J Med., submitted.

multiple myeloma [2] = assay: Response (EBMT criteria) in the pharmacogenomic patient subset; conditions: for CR (number of patients) / MR (number of patients) / NC (number of patients) / PD (number of patients) / PR (number of patients): study 039, pharmacogenomic patients
Experimental: as §1
A total of 264 patient samples were assessed for pharmacogenomic analyses. These patient samples were collected from the clinical trials of bortezomib for the treatment of multiple myeloma (see Table E). […] All pharmacogenomic analyses relied on the European Group for Blood and Marrow Transplant (EBMT) criteria of response category.

[3] = system: relapsed multiple myeloma; assay: Phase 2 clinical study M34100-024 (first relapse)
Description: (§2) See Richardson P G, et al. N Engl J Med., 348:2609-17 (2003). […] See Jagannath, Br J Haematol. 127:165-72 (2004). Patient samples and response criteria from patients participating in these studies, as well as the following additional studies described below were sought for use in pharmacogenomic analyses to identify markers associated with patient survival.

multiple myeloma [4] = assay: Phase 2 clinical study M34100-025 (second or greater relapse, refractory to last prior therapy); conditions: bortezomib alone
Description: as §2

[5] = best confirmed response, bortezomib n = 315, dexamethasone n = 312
[6] = difference in response rates, bortezomib versus dexamethasone
[7] = pharmacogenomic set of patients, EBMT criteria

Structure (SMILES): CC(C)C[C@H](NC(=O)[C@H](Cc1ccccc1)NC(=O)c1cnccn1)B(O)O [bortezomib, N-pyrazinecarbonyl-L-phenylalanine-L-leucineboronic acid]
- survival [1]: 30 months
- Complete Response [1, 5]: 20 (6) n (%)
- Minor Response [1, 5]: 25 (8) n (%)
- Near CR: IF+ [1, 5]: 21 (7) n (%)
- Progressive Disease [1, 5]: 22 (7) n (%)
- SWOG Remission [1, 5]: 46 (15) n (%)
- decrease in risk of death ([1]; bortezomib group versus dexamethasone, first year after enrollment): 41%
- Difference (95% CI), CR + PR + MR [1, 6]: 0.12 (0.04, 0.19)
- Difference (95% CI), Complete Response [1, 6]: 0.06 (0.03, 0.09)
- Difference (95% CI), Minor Response [1, 6]: −0.09 (−0.14, −0.04)
- Difference (95% CI), Near CR: IF+ [1, 6]: 0.06 (0.03, 0.09)
- Difference (95% CI), No Change [1, 6]: −0.04 (−0.12, 0.04)
- Difference (95% CI), Overall Response Rate (CR + PR) [1, 6]: 0.20 (0.14, 0.27)
- Difference (95% CI), Partial Response [1, 6]: 0.15 (0.08, 0.21)
- Difference (95% CI), Progressive Disease [1, 6]: −0.06 (−0.11, −0.01)
- Difference (95% CI), SWOG Remission [1, 6]: 0.09 (0.05, 0.14)
- One-year survival [1]: 80%
- CR (number of patients) (multiple myeloma [2]): 5
- MR (number of patients) (multiple myeloma [2]): 5
- NC (number of patients) (multiple myeloma [2]): 19
- PD (number of patients) (multiple myeloma [2]): 13
- PR (number of patients) (multiple myeloma [2]): 25
- CR+PR rate ([3]; bortezomib 1.0 mg/m^2): 30%
- CR+PR rate ([3]; bortezomib 1.3 mg/m^2): 38%
- CR+PR rate (multiple myeloma [4]; 53 of 193 patients): 27%
- overall response rate (CR+PR+MR) (multiple myeloma [4]; 67 of 193 patients): 35%

Structure (SMILES): C[C@@H]1C[C@H]2[C@@H]3CCC4=CC(=O)C=C[C@]4(C)[C@@]3(F)[C@@H](O)C[C@]2(C)[C@@]1(O)C(=O)CO [dexamethasone]
- survival [1]: 24 months
- Complete Response [1, 5]: 2 (<1) n (%)
- Minor Response [1, 5]: 52 (17) n (%)
- Near CR: IF+ [1, 5]: 3 (<1) n (%)
- Overall Response Rate (CR + PR) [1, 5]: 56 (18) n (%)
- Partial Response [1, 5]: 54 (17) n (%)
- Progressive Disease [1, 5]: 41 (13) n (%)
- SWOG Remission [1, 5]: 17 (5) n (%)
- One-year survival [1]: 66%
- CR+PR rate (multiple myeloma [2]; [7]): 22.2%
- overall response rate (multiple myeloma [2]; [7]): 39.7%
- CR (number of patients) (multiple myeloma [2]): 1
- MR (number of patients) (multiple myeloma [2]): 11
- NC (number of patients) (multiple myeloma [2]): 16
- PD (number of patients) (multiple myeloma [2]): 22
- PR (number of patients) (multiple myeloma [2]): 13
